Source: patent US5744450A, “GnRH analogs” (The Salk Institute for Biological Studies, priority 1995, dated 1998)

Tested on: LH release

CCNC(=O)[C@@H]1CCCN1C(=O)[C@H](CCCNC(=N)N)NC(=O)[C@H](CC(C)C)NC(=O)[C@@H](Cc1ccc(Nc2n[nH]c(N)n2)cc1)NC(=O)[C@H](Cc1ccc(O)cc1)NC(=O)[C@H](CO)NC(=O)[C@H](Cc1c[nH]c2ccccc12)NC(=O)[C@H](Cc1c[nH]cn1)NC(=O)[C@@H]1CCC(=O)N1 [Peptide 130A, pGlu-His-Trp-Ser-Tyr-D-Aph(3-amino-1,2,4-triazole)-Leu-Arg-Pro-NHCH2 CH3]
potency relative to native GnRH: about 79 times that of native GnRH
